From the NIST ThermoML archive (doi:10.1021/je400056z)

Experiment: xn = mol fraction of the nth substance listed
Details: Liquid, Vibrating tube method

CCCCCCCCCCCCC [tridecane] + O=C=O
Details	mass density [kg/m3]
353.12 K, 20000 kPa, x2 = 0.0955	732.3
353.12 K, 20000 kPa, x2 = 0.2526	735.2
353.12 K, 21000 kPa, x2 = 0.0955	733.1
353.12 K, 21000 kPa, x2 = 0.2526	736
353.12 K, 22000 kPa, x2 = 0.0955	733.9
353.12 K, 22000 kPa, x2 = 0.2526	736.8
353.12 K, 23000 kPa, x2 = 0.0955	734.6
353.12 K, 23000 kPa, x2 = 0.2526	737.6
353.12 K, 24000 kPa, x2 = 0.0955	735.4
353.12 K, 24000 kPa, x2 = 0.2526	738.5
353.12 K, 25000 kPa, x2 = 0.0955	736.1
353.12 K, 25000 kPa, x2 = 0.2526	739.2
353.13 K, 17000 kPa, x2 = 0.8978	677.4
353.13 K, 18000 kPa, x2 = 0.8978	689.5
353.13 K, 20000 kPa, x2 = 0.8978	712.3
353.13 K, 21000 kPa, x2 = 0.8978	721.9
353.13 K, 22000 kPa, x2 = 0.8978	730.6
353.13 K, 23000 kPa, x2 = 0.8978	738.3
353.13 K, 24000 kPa, x2 = 0.8978	745.5
353.13 K, 25000 kPa, x2 = 0.8978	752.2
353.15 K, 8000 kPa, x2 = 0.5259	729.7
353.15 K, 9000 kPa, x2 = 0.5259	731.2
353.15 K, 10000 kPa, x2 = 0.5259	732.7
353.15 K, 11000 kPa, x2 = 0.5259	734.2
353.15 K, 12000 kPa, x2 = 0.5259	735.6
353.15 K, 13000 kPa, x2 = 0.5259	737
353.15 K, 14000 kPa, x2 = 0.5259	738.3
353.15 K, 15000 kPa, x2 = 0.5259	739.7
353.15 K, 16000 kPa, x2 = 0.5259	741
353.15 K, 17000 kPa, x2 = 0.5259	742.3
353.15 K, 18000 kPa, x2 = 0.5259	743.6
353.15 K, 19000 kPa, x2 = 0.5259	744.9
353.15 K, 20000 kPa, x2 = 0.5259	746
353.15 K, 21000 kPa, x2 = 0.5259	747.3
353.15 K, 22000 kPa, x2 = 0.5259	748.4
353.15 K, 23000 kPa, x2 = 0.5259	749.6
353.15 K, 24000 kPa, x2 = 0.5259	750.6
353.15 K, 25000 kPa, x2 = 0.5259	751.8
353.35 K, 16000 kPa, x2 = 0.7549	739.7
353.35 K, 17000 kPa, x2 = 0.7549	742.7
353.35 K, 18000 kPa, x2 = 0.7549	745.7
353.35 K, 19000 kPa, x2 = 0.7549	748.7
353.35 K, 20000 kPa, x2 = 0.7549	751.8
353.35 K, 21000 kPa, x2 = 0.7549	754.9
353.35 K, 22000 kPa, x2 = 0.7549	757.9
353.35 K, 23000 kPa, x2 = 0.7549	760.8
353.35 K, 24000 kPa, x2 = 0.7549	763.8
353.35 K, 25000 kPa, x2 = 0.7549	766.7
363.07 K, 19000 kPa, x2 = 0.8978	671.9
363.07 K, 20000 kPa, x2 = 0.8978	681
363.07 K, 21000 kPa, x2 = 0.8978	691.1
363.07 K, 22000 kPa, x2 = 0.8978	700.8
363.07 K, 23000 kPa, x2 = 0.8978	709.5
363.07 K, 24000 kPa, x2 = 0.8978	717.3
363.07 K, 25000 kPa, x2 = 0.8978	724.8
363.11 K, 9000 kPa, x2 = 0.0955	715.7
363.11 K, 9000 kPa, x2 = 0.2526	717.4
363.11 K, 10000 kPa, x2 = 0.0955	716.7
363.11 K, 10000 kPa, x2 = 0.2526	718.4
363.11 K, 10000 kPa, x2 = 0.5259	723
363.11 K, 11000 kPa, x2 = 0.0955	717.7
363.11 K, 11000 kPa, x2 = 0.2526	719.5
363.11 K, 11000 kPa, x2 = 0.5259	724.6
363.11 K, 12000 kPa, x2 = 0.0955	718.7
363.11 K, 12000 kPa, x2 = 0.2526	720.5
363.11 K, 12000 kPa, x2 = 0.5259	726.2
363.11 K, 13000 kPa, x2 = 0.0955	719.6
363.11 K, 13000 kPa, x2 = 0.2526	721.5
363.11 K, 13000 kPa, x2 = 0.5259	727.6
363.11 K, 14000 kPa, x2 = 0.0955	720.5
363.11 K, 14000 kPa, x2 = 0.2526	722.6
363.11 K, 14000 kPa, x2 = 0.5259	729.2
363.11 K, 15000 kPa, x2 = 0.0955	721.5
363.11 K, 15000 kPa, x2 = 0.2526	723.6
363.11 K, 15000 kPa, x2 = 0.5259	730.6
363.11 K, 16000 kPa, x2 = 0.0955	722.4
363.11 K, 16000 kPa, x2 = 0.2526	724.6
363.11 K, 16000 kPa, x2 = 0.5259	732
363.11 K, 17000 kPa, x2 = 0.0955	723.3
363.11 K, 17000 kPa, x2 = 0.2526	725.5
363.11 K, 17000 kPa, x2 = 0.5259	733.4
363.11 K, 18000 kPa, x2 = 0.0955	724.1
363.11 K, 18000 kPa, x2 = 0.2526	726.4
363.11 K, 18000 kPa, x2 = 0.5259	734.7
363.11 K, 19000 kPa, x2 = 0.0955	725
363.11 K, 19000 kPa, x2 = 0.2526	727.4
363.11 K, 19000 kPa, x2 = 0.5259	736
363.11 K, 20000 kPa, x2 = 0.0955	725.8
363.11 K, 20000 kPa, x2 = 0.2526	728.3
363.11 K, 20000 kPa, x2 = 0.5259	737.3
363.11 K, 21000 kPa, x2 = 0.0955	726.6
363.11 K, 21000 kPa, x2 = 0.2526	729.2
363.11 K, 21000 kPa, x2 = 0.5259	738.6
363.11 K, 22000 kPa, x2 = 0.0955	727.5
363.11 K, 22000 kPa, x2 = 0.2526	730.1
363.11 K, 22000 kPa, x2 = 0.5259	739.9
363.11 K, 23000 kPa, x2 = 0.0955	728.3
363.11 K, 23000 kPa, x2 = 0.2526	731
363.11 K, 23000 kPa, x2 = 0.5259	741.1
363.11 K, 24000 kPa, x2 = 0.0955	729.1
363.11 K, 24000 kPa, x2 = 0.2526	731.8
363.11 K, 24000 kPa, x2 = 0.5259	742.3
363.11 K, 25000 kPa, x2 = 0.0955	729.9
363.11 K, 25000 kPa, x2 = 0.2526	732.7
363.11 K, 25000 kPa, x2 = 0.5259	743.4
363.34 K, 16000 kPa, x2 = 0.7549	720.1
363.34 K, 17000 kPa, x2 = 0.7549	724.7
363.34 K, 18000 kPa, x2 = 0.7549	728.3
363.34 K, 19000 kPa, x2 = 0.7549	730.8
363.34 K, 20000 kPa, x2 = 0.7549	734.2
363.34 K, 21000 kPa, x2 = 0.7549	737.3
363.34 K, 22000 kPa, x2 = 0.7549	740.5
363.34 K, 23000 kPa, x2 = 0.7549	743.8
363.34 K, 24000 kPa, x2 = 0.7549	746.9
363.34 K, 25000 kPa, x2 = 0.7549	750.1
